Reference: publication PMC11783601, “Analogue-Sensitive Inhibition of Histone Demethylases Uncovers Member-Specific Function in Ribosomal Protein Synthesis” (Journal of the American Chemical Society, 2025)
“And” between values parts separate entries of the source, which are not always exact repeats. Equal entries are not always repeated.

Molecular target: T1, KDM4A F185A (asKDM4A) in HEK293T cells (Homo sapiens, UniProt O75164, F185A)
T1 construct: we generated the F185A mutation in full-length KDM4A carrying all of the functional domains; host or cells: HEK293T
T1 sequence (O75164 1-1064 F185A): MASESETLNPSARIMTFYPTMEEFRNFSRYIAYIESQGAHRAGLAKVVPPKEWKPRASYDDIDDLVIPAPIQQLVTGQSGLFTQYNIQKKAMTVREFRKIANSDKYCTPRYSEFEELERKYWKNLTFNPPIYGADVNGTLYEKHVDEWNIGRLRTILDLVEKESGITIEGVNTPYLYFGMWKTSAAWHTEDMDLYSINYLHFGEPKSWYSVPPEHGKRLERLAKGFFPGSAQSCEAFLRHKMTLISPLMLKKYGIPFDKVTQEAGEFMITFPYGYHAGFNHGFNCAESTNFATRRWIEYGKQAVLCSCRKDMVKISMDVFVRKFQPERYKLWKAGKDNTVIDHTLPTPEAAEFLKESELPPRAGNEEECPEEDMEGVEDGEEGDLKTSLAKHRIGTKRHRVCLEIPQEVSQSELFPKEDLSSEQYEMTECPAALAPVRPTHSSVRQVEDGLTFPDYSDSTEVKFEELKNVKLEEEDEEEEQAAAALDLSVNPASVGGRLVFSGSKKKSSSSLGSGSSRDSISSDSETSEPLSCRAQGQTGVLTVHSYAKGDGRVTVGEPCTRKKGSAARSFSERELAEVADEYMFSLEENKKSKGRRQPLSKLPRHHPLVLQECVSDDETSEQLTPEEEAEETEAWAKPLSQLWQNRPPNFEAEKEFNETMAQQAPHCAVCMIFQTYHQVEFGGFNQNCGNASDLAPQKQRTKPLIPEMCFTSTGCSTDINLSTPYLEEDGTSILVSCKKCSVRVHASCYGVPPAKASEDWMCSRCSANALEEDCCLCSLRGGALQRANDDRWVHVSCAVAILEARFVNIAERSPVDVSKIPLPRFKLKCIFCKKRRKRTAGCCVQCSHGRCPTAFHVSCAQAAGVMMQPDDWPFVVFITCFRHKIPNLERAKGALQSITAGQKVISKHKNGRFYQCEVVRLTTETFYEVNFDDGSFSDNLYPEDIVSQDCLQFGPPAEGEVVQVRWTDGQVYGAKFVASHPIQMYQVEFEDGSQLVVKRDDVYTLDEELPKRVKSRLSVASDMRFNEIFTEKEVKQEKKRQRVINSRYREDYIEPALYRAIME
Experiment: Histone extraction, digestion and tandem mass spectrometry (relative abundance of histone modifications)
Type: cell-based
Conditions: peptide form; samples 6A_1, 6A_2
Protocol: HEK293T cells were transiently transfected with asKDM4A and treated with varying concentrations of 6A or 6B. […] To further confirm the activity of the enzyme–inhibitor pair, we performed tandem mass spectrometry of tryptic histones isolated from HEK293T cells expressing asKDM4A in the presence or absence of 100 μM 6A. […]
22. Histone extraction, digestion and tandem mass spectrometry
HEK 293-T cells (ATCC CRL-1573) were plated into 6-well plates (Corning) in DMEM (Corning) supplemented with 10% FBS (Corning) and 1X Antibiotic/Antimycin
(Penicillin/Streptomycin/Fungiozone) (Cytiva HyClone) in an incubator held at 37 °C with 5%
CO2. At 75% confluency, cells were transfected with 2.5 µg KDM4A F185A or Empty Vector with 5µg Thermo Turbofect (FERR0531). After 4 hours, the media was washed and 200 µM of 6A or equivalent volume of DMSO was added and left to incubate at 37 °C for 24 hours. Cells were then washed with 1X PBS (Corning) followed by trypsinization (Gibco TrypLE™ Express Enzyme). Collected cells were centrifuged at 3000xg for 3 minutes, followed by washing with 1X PBS and centrifuged for an additional 3000xg for 3 minutes. Histone proteins were extracted from the pellet as described by25 to ensure good-quality identification and quantification of single histone marks. Briefly, cell pellets were dissolved in 100 µL of cold 0.2 M H2SO4 and incubated for 2 hours rotating in a cold room (4 °C). Aliquots were then centrifuged at 3400xg for 5 minutes […]
at 4 °C and the supernatant was added to a fresh tube. 100% cold TCA was then added to a final volume of 33% volume/volume TCA/supernatant and left to incubate for 1 hour in a cold room (4 °C). Samples were then centrifuged at 3400xg for 5 min at 4 °C and the supernatant was discarded. The precipitate was then washed with cold acetone/0.1% HCl and centrifuged at 3400xg for 5 minutes at 4 °C. The supernatant was discarded, and the precipitate was washed with cold acetone and centrifuged at 3400xg for 5 minutes at 4 °C. The supernatant was discarded, and the pellet was dried using a vacuum centrifuge.
The pellet was dissolved in 50 mM ammonium bicarbonate, pH 8.0, and histones were subjected to derivatization using 5 µL of propionic anhydride and 14 µL of ammonium hydroxide (all Sigma Aldrich) to balance the pH at 8.0. The mixture was incubated for 15 min and the procedure was repeated. Histones were then digested with 1 µg of sequencing grade trypsin (Promega) diluted in 50mM ammonium bicarbonate (1:20, enzyme:sample) overnight at room temperature.
Derivatization reaction was repeated to derivatize peptide N-termini. The samples were dried in a […]
Sample desalting: Prior to mass spectrometry analysis, samples were desalted using a 96-well plate filter (Orochem) packed with 1 mg of Oasis HLB C-18 resin (Waters). Briefly, the samples were resuspended in 100 µl of 0.1% TFA and loaded onto the HLB resin, which was previously equilibrated using 100 µl of the same buffer. After washing with 100 µl of 0.1% TFA, the samples were eluted with a buffer containing 70 µl of 60% acetonitrile and 0.1% TFA and then dried in a […]
LC-MS/MS Acquisition and Analysis: Samples were resuspended in 10 µl of 0.1% TFA and loaded onto a Dionex RSLC […] (Thermo Scientific), coupled online with an Orbitrap Fusion Lumos (Thermo Scientific). Chromatographic separation was performed with a two-column system, consisting of a C-18 trap cartridge (300 µm ID, 5 mm length) and a picofrit analytical column (75 µm ID, 25 cm length) packed in-house with reversed-phase Repro-Sil Pur C18-AQ 3 µm resin. Peptides were separated using a 30 min gradient from 1-30% buffer B (buffer A: 0.1% formic acid, buffer B: 80% acetonitrile + 0.1% formic acid) at a flow rate of 300 nl/min.
The mass spectrometer was set to acquire spectra in a data-independent acquisition (DIA) mode.

## CCCCCCCCOC(=O)C(=O)NC(CC(C)C)C(=O)O [6A, L-Leu octyl-ester NOG]
  Relative abundance, H3_9_17 K9me1S10ph: 7.8% and 0.0004%
  Relative abundance, H3_9_17 K9me1S10phK14ac: 0.0342% and 0.0031%
  Relative abundance, H3_9_17 K9me2: 22.1% and 17.2%
  Relative abundance, H3_9_17 K9me2K14ac: 19.6% and 31.3%
  Relative abundance, H3_9_17 K9me2S10ph: 0.317% and 0.0091%
  Relative abundance, H3_9_17 K9me2S10phK14ac: 0.125% and 0.1%
  Relative abundance, H3_9_17 K9me3: 10.5% and 10.1%
  Relative abundance, H3_9_17 K9me3K14ac: 4.9% and 8.1%
  Relative abundance, H3_9_17 K9me3S10ph: 0.178% and 0.2%
  Relative abundance, H3_9_17 K9me3S10phK14ac: 0.0363% and 0.177%
  Relative abundance, H3_9_17 K14ac: 8.4% and 11.5%
  Relative abundance, H3_9_17 S10ph: 0.0768% and 0.0083%
  Relative abundance, H3_9_17 S10phK14ac: 0.0443% and 0.0008%
  Relative abundance, H3_9_17 unmod: 9.8% and 11.8%
  Relative abundance, H3_18_26 K18ac: 0.249% and 0.34%
  Relative abundance, H3_18_26 K18acK23ac: 0.647% and 0.316%
  Relative abundance, H3_18_26 K18me1: 0.0% and 0.0012%
  Relative abundance, H3_18_26 K18me1K23me1: 0.0%
  Relative abundance, H3_18_26 K23ac: 50.6% and 44.0%
  Relative abundance, H3_18_26 K23me1: 0.0% and 0.0005%
  Relative abundance, H3_18_26 unmod: 48.5% and 55.3%
  Relative abundance, H3_27_40 K27ac: 0.0296% and 0.0%
  Relative abundance, H3_27_40 K27me1: 3.2% and 3.4%
  Relative abundance, H3_27_40 K27me1K36me1: 5.3% and 3.7%
  Relative abundance, H3_27_40 K27me1K36me2: 8.3% and 9.8%
  Relative abundance, H3_27_40 K27me1K36me3: 1.2% and 1.9%
  Relative abundance, H3_27_40 K27me1S28ph: 0.0041% and 0.002%
  Relative abundance, H3_27_40 K27me2: 15.4% and 12.9%
  Relative abundance, H3_27_40 K27me2K36me1: 9.5% and 8.5%
  Relative abundance, H3_27_40 K27me2K36me2: 22.1% and 30.2%
  Relative abundance, H3_27_40 K27me2S28ph: 0.0281% and 0.0017%
  Relative abundance, H3_27_40 K27me3: 11.7% and 6.9%
  Relative abundance, H3_27_40 K27me3K36me1: 3.6% and 2.6%
  Relative abundance, H3_27_40 K27me3K36me2: 3.5% and 4.6%
  Relative abundance, H3_27_40 K27me3S28ph: 0.0216% and 0.0012%
  Relative abundance, H3_27_40 K36me1: 1.9% and 1.7%
  Relative abundance, H3_27_40 K36me2: 3.2% and 4.8%
  Relative abundance, H3_27_40 K36me3: 5.9% and 4.4%
  Relative abundance, H3_27_40 S28ph: 0.0007% and 0.1%
  Relative abundance, H3_27_40 unmod: 5.0% and 4.6%
  Relative abundance, H3_41_49 Y41ph: 0.001% and 0.173%
  Relative abundance, H3_41_49 unmod: 100.0% and 99.8%
  Relative abundance, H3_54_63 K56ac: 0.0%
  Relative abundance, H3_54_63 K56me2: 0.0%
  Relative abundance, H3_54_63 K56me3: 0.0%
  Relative abundance, H3_73_83 K79ac: 0.0%
  Relative abundance, H3_73_83 K79me3: 4.6% and 0.0%
  Relative abundance, H4_4_17 K5ac: 1.3% and 2.1%
  Relative abundance, H4_4_17 K5acK8ac: 0.3% and 1.0%
  Relative abundance, H4_4_17 K5acK8acK12ac: 0.261% and 1.3%
  Relative abundance, H4_4_17 K5acK8acK12acK16ac: 0.0284% and 2.6%
  Relative abundance, H4_4_17 K5acK8acK16ac: 0.279% and 0.9%
  Relative abundance, H4_4_17 K5acK12ac: 0.8% and 3.1%
  Relative abundance, H4_4_17 K5acK12acK16ac: 0.471% and 3.1%
  Relative abundance, H4_4_17 K5acK16ac: 0.7% and 2.5%
  Relative abundance, H4_4_17 K8ac: 1.3% and 1.4%
  Relative abundance, H4_4_17 K8acK12ac: 0.211% and 0.6%
  Relative abundance, H4_4_17 K8acK12acK16ac: 1.2% and 4.4%
  Relative abundance, H4_4_17 K8acK16ac: 1.5% and 3.9%
  Relative abundance, H4_4_17 K12ac: 2.8% and 4.2%
  Relative abundance, H4_4_17 K12acK16ac: 3.3% and 7.5%
  Relative abundance, H4_4_17 K16ac: 24.2% and 24.4%
  Relative abundance, H4_4_17 unmod: 61.3% and 37.2%
  Relative abundance, H4_20_23 K20ac: 0.3% and 1.3%
  Relative abundance, H4_20_23 K20me1: 48.4% and 36.1%
  Relative abundance, H4_20_23 K20me3: 3.5% and 3.6%
  Relative abundance, H4_20_23 unmod: 37.7% and 34.8%
  Relative abundance, H4_24_35 unmod: 100.0%
  Relative abundance, H4_40_45 K44ac: 0.0025% and 0.039%
  Relative abundance, H4_40_45 unmod: 100.0%
  Relative abundance, H4_79_92 unmod: 100.0%
  Relative abundance, H33_27_40 K27ac: 0.0069% and 0.0%
  Relative abundance, H33_27_40 K27me1: 3.6% and 2.5%
  Relative abundance, H33_27_40 K27me1K36me1: 4.8% and 3.5%
  Relative abundance, H33_27_40 K27me1K36me2: 11.0% and 11.1%
  Relative abundance, H33_27_40 K27me1K36me3: 2.1% and 3.4%
  Relative abundance, H33_27_40 K27me1S28ph: 0.0023% and 0.024%
